Values joined by “and” are separate entries in the source; they are usually repeats but may differ in a detail not shown here. Equal entries are not always repeated. Inconclusive results and toxic doses are left out. No stated cut-off is given here; in the data, active means T/C of 150% or more; inactive means T/C below 125%.
Test system: L1210 leukemia ip in BDF1 mice, survival T/C
Test: NCI In Vivo Anticancer Drug Screen. Data for tumor model L1210 Leukemia (intraperitoneal) in B6D2F1 (BDF1) mice
Conditions: endpoint: mean survival time, higher = longer survival
Method in brief: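 Tumor was transplanted into mice, which were then dosed with test compound or vehicle alone. Survival was recorded for each group, and the treated figure was expressed relative to the control figure.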

[1] = dose: 100.0 mg/kg/injection, schedule: Q04DX003 (ip), vehicle: saline with Tween-80
[2] = dose: 200.0 mg/kg/injection, schedule: Q04DX003 (ip), vehicle: saline with Tween-80
[3] = dose: 100.0 mg/kg/injection, schedule: Q04DX003 (ip), vehicle: Klucel (hydroxypropylcellulose) (HPC)
[4] = dose: 400.0 mg/kg/injection, schedule: Q04DX003 (ip), vehicle: Klucel (hydroxypropylcellulose) (HPC)
[5] = dose: 100.0 mg/kg/injection, schedule: Q04DX003 (ip), vehicle: saline
[6] = dose: 200.0 mg/kg/injection, schedule: Q04DX003 (ip), vehicle: Klucel (hydroxypropylcellulose) (HPC)
[7] = dose: 100.0 mg/kg/injection, schedule: Q01DX001 (ip), vehicle: saline
[8] = dose: 200.0 mg/kg/injection, schedule: Q01DX001 (ip), vehicle: saline

Measured: T/C

CSc1ccc(OC(=O)Nc2cc(Cl)ccc2C)cc1
inactive: dose: 100.0 mg/kg/injection, schedule: Q01DX001 (ip), vehicle: saline with Tween-80 98 % of control | dose: 100.0 mg/kg/injection, schedule: Q01DX009 (ip), vehicle: saline with Tween-80 95 % of control and 98 % of control | dose: 100.0 mg/kg/injection, schedule: Q04DX002 (ip), vehicle: saline with Tween-80 97 % of control | [1] 96 % of control | dose: 200.0 mg/kg/injection, schedule: Q01DX001 (ip), vehicle: saline with Tween-80 96 % of control | dose: 200.0 mg/kg/injection, schedule: Q01DX009 (ip), vehicle: saline with Tween-80 96 % of control and 103 % of control | dose: 200.0 mg/kg/injection, schedule: Q04DX002 (ip), vehicle: saline with Tween-80 94 % of control and 101 % of control | [2] 98 % of control | dose: 400.0 mg/kg/injection, schedule: Q01DX001 (ip), vehicle: saline with Tween-80 93 % of control | dose: 400.0 mg/kg/injection, schedule: Q04DX002 (ip), vehicle: saline with Tween-80 94 % of control and 105 % of control

NC1(C(=O)O)CCc2ccccc2C1 (centres undefined)
inactive: [3] 91 % of control | [4] 99 % of control

CCCCCC/C(=N/NC(N)=O)C(OC)OC
inactive: dose: 100.0 mg/kg/injection, schedule: Q01DX001 (ip), vehicle: other 94 % of control | dose: 200.0 mg/kg/injection, schedule: Q01DX001 (ip), vehicle: other 105 % of control | dose: 400.0 mg/kg/injection, schedule: Q01DX001 (ip), vehicle: other 100 % of control

CC(=O)OC(=O)C1C2CC3C(C2)C31 (centres undefined)
inactive: dose: 6.25 mg/kg/injection, schedule: Q01DX009 (ip), vehicle: other 101 % of control | dose: 12.5 mg/kg/injection, schedule: Q01DX009 (ip), vehicle: other 97 % of control | dose: 25.0 mg/kg/injection, schedule: Q01DX009 (ip), vehicle: other 93 % of control

CCCCCCCCCCCCC(=O)N(CCC)CCC
inactive: dose: 100.0 mg/kg/injection, schedule: Q04DX002 (ip), vehicle: Klucel (hydroxypropylcellulose) (HPC) 98 % of control | dose: 200.0 mg/kg/injection, schedule: Q04DX002 (ip), vehicle: Klucel (hydroxypropylcellulose) (HPC) 98 % of control | dose: 400.0 mg/kg/injection, schedule: Q04DX002 (ip), vehicle: Klucel (hydroxypropylcellulose) (HPC) 102 % of control

Cc1cc(=O)[nH]c2c(Br)cccc12
inactive: dose: 75.0 mg/kg/injection, schedule: Q04DX003 (ip), vehicle: Klucel (hydroxypropylcellulose) (HPC) 87 % of control | dose: 150.0 mg/kg/injection, schedule: Q04DX003 (ip), vehicle: Klucel (hydroxypropylcellulose) (HPC) 97 % of control | dose: 300.0 mg/kg/injection, schedule: Q04DX003 (ip), vehicle: Klucel (hydroxypropylcellulose) (HPC) 97 % of control

O=C(O)c1ccc(SSc2ccc(C(=O)O)cn2)nc1
inactive: [5] 102 % of control | dose: 200.0 mg/kg/injection, schedule: Q04DX003 (ip), vehicle: saline 101 % of control | dose: 400.0 mg/kg/injection, schedule: Q04DX003 (ip), vehicle: saline 104 % of control

O=C(NCCCCN1CC1)C(=O)Nc1ccccc1
inactive: dose: 12.5 mg/kg/injection, schedule: Q04DX003 (ip), vehicle: Klucel (hydroxypropylcellulose) (HPC) 97 % of control | dose: 25.0 mg/kg/injection, schedule: Q04DX003 (ip), vehicle: Klucel (hydroxypropylcellulose) (HPC) 93 % of control | dose: 50.0 mg/kg/injection, schedule: Q04DX003 (ip), vehicle: Klucel (hydroxypropylcellulose) (HPC) 98 % of control | [3] 103 % of control

COc1cccc(C(=O)NC[n+]2ccccc2)c1
inactive: dose: 25.0 mg/kg/injection, schedule: Q01DX009 (ip), vehicle: saline 92 % of control | dose: 25.0 mg/kg/injection, schedule: Q04DX003 (ip), vehicle: saline 96 % of control | dose: 50.0 mg/kg/injection, schedule: Q01DX009 (ip), vehicle: saline 87 % of control | dose: 50.0 mg/kg/injection, schedule: Q04DX003 (ip), vehicle: saline 86 % of control | [5] 100 % of control

CCNC(C)(C)C(SSS)c1cccs1 (centres undefined)
inactive: dose: 100.0 mg/kg/injection, schedule: Q01DX009 (ip), vehicle: saline sonified 96 % of control | dose: 100.0 mg/kg/injection, schedule: Q04DX003 (ip), vehicle: saline sonified 91 % of control | dose: 200.0 mg/kg/injection, schedule: Q01DX009 (ip), vehicle: saline sonified 94 % of control | dose: 200.0 mg/kg/injection, schedule: Q04DX003 (ip), vehicle: saline sonified 87 % of control | dose: 400.0 mg/kg/injection, schedule: Q01DX009 (ip), vehicle: saline sonified 88 % of control | dose: 400.0 mg/kg/injection, schedule: Q04DX003 (ip), vehicle: saline sonified 89 % of control

COC1(c2ccccc2)OC(Cc2ccccc2)=NC1(C)C (centres undefined)
inactive: [3] 94 % of control | [6] 94 % of control | [4] 94 % of control

CONP(=O)(NOC)c1ccccc1
inactive: [7] 103 % of control | [8] 95 % of control | dose: 400.0 mg/kg/injection, schedule: Q01DX001 (ip), vehicle: saline 90 % of control

Cc1[nH]nc2c(=O)[nH]c(=O)[nH]c12
inactive: dose: 75.0 mg/kg/injection, schedule: Q01DX001 (ip), vehicle: saline 100 % of control | dose: 150.0 mg/kg/injection, schedule: Q01DX001 (ip), vehicle: saline 103 % of control | dose: 300.0 mg/kg/injection, schedule: Q01DX001 (ip), vehicle: saline 107 % of control

CN(C(=O)C(=O)N(C)S(=O)(=O)c1ccccc1)S(=O)(=O)c1ccccc1
inactive: dose: 100.0 mg/kg/injection, schedule: Q01DX001 (ip), vehicle: Klucel (hydroxypropylcellulose) (HPC) 101 % of control | dose: 200.0 mg/kg/injection, schedule: Q01DX001 (ip), vehicle: Klucel (hydroxypropylcellulose) (HPC) 97 % of control | dose: 400.0 mg/kg/injection, schedule: Q01DX001 (ip), vehicle: Klucel (hydroxypropylcellulose) (HPC) 90 % of control

N#CC(C#N)c1ccc(C(C#N)C#N)cc1
inactive: dose: 50.0 mg/kg/injection, schedule: Q01DX001 (ip), vehicle: saline 103 % of control | [7] 122 % of control | [8] 103 % of control

CN(C)c1ccc(N2C(=O)C=CC2=O)cc1
inactive: dose: 6.25 mg/kg/injection, schedule: Q01DX001 (ip), vehicle: saline with Tween-80 104 % of control | dose: 12.5 mg/kg/injection, schedule: Q01DX001 (ip), vehicle: saline with Tween-80 105 % of control

Cc1ccc(C(=O)Nc2ccc([N+](=O)[O-])cc2)cc1
inactive: [3] 88 % of control | [6] 100 % of control | [4] 98 % of control

O=C(O)C1C2C=CC(C2)C1C(=O)Nc1ccccc1 (centres undefined)
inactive: [1] 106 % of control | [2] 96 % of control | dose: 400.0 mg/kg/injection, schedule: Q04DX003 (ip), vehicle: saline with Tween-80 101 % of control

O=C(OCC1OC(n2c(=O)[nH]c3scnc3c2=O)C(OC(=O)c2ccccc2)C1OC(=O)c1ccccc1)c1ccccc1 (centres undefined)
inactive: dose: 100.0 mg/kg/injection, schedule: Q01DX005 (ip), vehicle: saline 93 % of control | dose: 200.0 mg/kg/injection, schedule: Q01DX005 (ip), vehicle: saline 86 % of control

CN(C)c1ccc2c(c1)C(=P(c1ccccc1)(c1ccccc1)c1ccccc1)c1ccccc1-2
inactive: dose: 63.0 mg/kg/injection, schedule: Q01DX015 (ip), vehicle: carboxymethylcellulose (CMC) 103 % of control | dose: 100.0 mg/kg/injection, schedule: Q01DX001 (ip), vehicle: carboxymethylcellulose (CMC) 97 % of control | dose: 125.0 mg/kg/injection, schedule: Q01DX015 (ip), vehicle: carboxymethylcellulose (CMC) 94 % of control | dose: 200.0 mg/kg/injection, schedule: Q01DX001 (ip), vehicle: carboxymethylcellulose (CMC) 101 % of control | dose: 250.0 mg/kg/injection, schedule: Q01DX015 (ip), vehicle: carboxymethylcellulose (CMC) 100 % of control | dose: 400.0 mg/kg/injection, schedule: Q01DX001 (ip), vehicle: carboxymethylcellulose (CMC) 90 % of control | dose: 500.0 mg/kg/injection, schedule: Q01DX015 (ip), vehicle: carboxymethylcellulose (CMC) 89 % of control
